We go through 41 compounds from patent publication US8633232B2, “Compounds, compositions and methods of using same for modulating uric acid levels” (Ardea Biosciences, Inc., priority 2008, dated 2014).

In the assay the target is T1, hURAT1 Transporter (Homo sapiens, UniProt Q96S37).
T1 construct: Full-length human URAT1 gene (SLC22A12) was subcloned from plasmid pCMV6-XL5
T1 sequence (Q96S37 1-553): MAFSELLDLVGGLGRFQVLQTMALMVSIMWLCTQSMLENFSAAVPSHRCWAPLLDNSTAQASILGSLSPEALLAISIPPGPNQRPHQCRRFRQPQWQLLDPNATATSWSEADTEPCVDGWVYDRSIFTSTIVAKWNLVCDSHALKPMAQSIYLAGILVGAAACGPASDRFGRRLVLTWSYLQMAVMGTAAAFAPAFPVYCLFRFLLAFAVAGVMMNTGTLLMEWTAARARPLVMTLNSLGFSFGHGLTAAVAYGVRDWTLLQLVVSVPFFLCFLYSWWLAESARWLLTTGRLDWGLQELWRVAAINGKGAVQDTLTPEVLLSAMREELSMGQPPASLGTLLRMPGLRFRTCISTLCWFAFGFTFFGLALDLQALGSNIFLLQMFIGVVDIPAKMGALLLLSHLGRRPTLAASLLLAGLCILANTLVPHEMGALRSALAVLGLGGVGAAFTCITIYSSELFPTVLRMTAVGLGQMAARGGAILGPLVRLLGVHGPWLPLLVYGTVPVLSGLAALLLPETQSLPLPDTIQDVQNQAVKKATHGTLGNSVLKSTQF
The assay is described as follows: Uric Acid Uptake Assay. In kind it is cell-based. The following applies: HEK293/urat1 cells; C14 Uric Acid 40 μM; 10 minutes at room temperature. From the text:
Creation of Stable Cell Lines Expressing hURAT1 Transporter: Full-length human URAT1 gene (SLC22A12) was subcloned from plasmid pCMV6-XL5 (Origene) into eukaryotic expression plasmid pCMV6/Neo (Origene) using Not I restriction sites. Gene sequencing confirmed the sequence of hURAT1 as outlined in Genbank (Accession #NM_144585.2). HEK293 human embryonic kidney cells (ATCC#CRL-1573) were propagated in EMEM tissue culture medium as described by ATCC in an atmosphere of 5% CO2 and 95% air. Transfections of HEK293 cells with the pCMV6/Neo/URAT1 construct were performed using L2000 transfection reagent (Invitrogen) as described by the manufacturer. After 24 h the transfected cells were split into 10 cm tissue culture plates and grown for 1 day after which the medium was replaced with fresh growth medium containing G418 (Gibco) at 0.5 mg/ml final concentration. Drug-resistant colonies were selected after approximately 8 days and then tested for ^14C-uric acid transport activity. The HEK293/urat1 cells are plated on Poly-D-Lysine Coated 96-well Plates at a density of 75,000 cells per well.
Cells were grown overnight (20-26 hours) at 37° C. in an incubator. Plates were allowed to come to room temperature and media was washed out with one wash of […] of Wash Buffer (125 mM Na Gluconate, 10 mM Hepes ph 7.3). Compound or vehicle is added in assay buffer with C14 Uric Acid for a final concentration of 40 μM Uric Acid with a specific activity of 54 mCi/mmol. Assay Buffer is 125 mM Sodium Gluconate, 4.8 mM Potassium Gluconate, 1.2 mM Potassium phosphate, monobasic, 1.2 mM magnesium sulfate, 1.3 mM Ca Gluconate, 5.6 mM Glucose, 25 mM HEPES, pH 7.3. Plates were incubated at room temperature for 10 minutes then washed 3 times with 50 μl Wash Buffer and 3 times with 250 μl Wash Buffer. Microscint 20 Scintillation Fluid was added and plates were incubated overnight at 45° C. to equilibrate. Plates are then read on the TopCount Plate Reader and an EC50 value generated. (See Enomoto et al, Nature, 2002, 417, 447-451 and Anzai et al, J. Biol. Chem., 2004, 279, 45942-45950.).
Compounds prepared as described herein, were examined according to the procedure described above and EC50 values generated. […] (N/A means data not available).
The EC50 is the concentration needed to bring the measured effect to its halfway point. Compound `Cc1nnc(SCC(=O)O)n1Cc1ccccc1` gave an EC50 of over 30 µM.

`Cc1nnc(SCC(=O)O)n1-c1ccc2c(c1)OCCO2`: the EC50 was over 30 µM.

Take `CCCSc1nnc(N)n1-c1ccc(C2CC2)c2ccccc12`: the EC50 was over 30 µM.

`CCc1ccc(-n2c(CF)nnc2SCC(=O)O)c2ccccc12` gave an EC50 of 1 to 30 µM.

`Cc1ccc(-n2c(SCC(=O)O)nnc2C(F)F)c2ccccc12` displayed an EC50 of 1 to 30 µM.

Compound `Cc1ccc(-n2c(SCC(N)=O)nnc2C(F)F)c2c1CCCC2` had an EC50 of 1 to 30 µM.

Compound `CC(C)(C)c1ccc(-n2c(SCC(=O)O)nnc2C(F)F)c(Cl)c1` gave an EC50 of over 30 µM.

`O=C(O)CSc1nnc(C(F)F)n1-c1ccc(C2CC2)c2ccccc12` came in with an EC50 of 1 to 30 µM.

The compound `COc1ccc(Cl)c(-n2c(SCC(=O)O)nnc2C(F)F)c1` came in with an EC50 of over 30 µM.

`CCOC(=O)CSc1nnc(C(F)F)n1-c1ccc(OC)c2c1CCCC2` displayed an EC50 of over 30 µM.

Regarding `COc1ccc(-n2c(SCC(=O)O)nnc2C(F)F)c2c1CCCC2`, the EC50 lay in the range of 1 to 30 µM.

Consider `CCOC(=O)CSc1nnc(C(F)F)n1-c1ccc(C)c2c1CCCN2`, for which the EC50 was over 30 µM.

`CCOC(=O)CSc1nnc(C(F)F)n1-c1c(C)cc(C)c2ccccc12` had an EC50 of over 30 µM.

The compound `Cc1cc(C)c2ccccc2c1-n1c(SCC(=O)O)nnc1C(F)F` yielded a concentration for a half-maximal effect (EC50) of 1 to 30 µM.

Compound `Cc1ccc(-n2c(SCC(=O)O)nnc2C(F)F)c2c1NCCC2` gave an EC50 of over 30 µM.

With `O=C(O)CSc1nnc(C(F)(F)F)n1-c1cccc2ccccc12`, the EC50 fell in the range of 1 to 30 µM.

In the case of `CCOC(=O)CSc1nnc(C(F)(F)F)n1-c1ccc(OC)c2c1CCCC2`, the EC50 is over 30 µM.

For the compound `CCOC(=O)CSc1nnc(C(F)(F)F)n1-c1ccc(C)c2c1CCCC2`, the EC50 lay within 1 to 30 µM.

With `Cc1ccc(-n2c(SCC(=O)O)nnc2C(F)(F)F)c2c1CCCC2`, the EC50 lay within 0.001 to 1 µM.

Turning to `COc1ccc(-n2c(SCC(=O)O)nnc2C(F)(F)F)c2c1CCCC2`, the EC50 lay within 1 to 30 µM.

In the case of `Cc1ccc(-n2c(Br)nnc2SCC(=O)O)c2ccccc12`, the EC50 was in the range of 1 to 30 µM.

Regarding `O=C(O)CSc1nnc(Br)n1-c1cccc2ccccc12`, the EC50 fell in the range of 1 to 30 µM.

In turn, `CCc1ccc(-n2c(Br)nnc2SCC(=O)OC)c2ccccc12` gave an EC50 of 0.001 to 1 µM.

Regarding `CCc1ccc(-n2c(Br)nnc2SCC(=O)O)c2ccccc12`, the 50% effective concentration (EC50) is 0.001 to 1 µM.

`CCOC(=O)CCCSc1nnc(Br)n1-c1ccc(C2CC2)c2ccccc12` gave an EC50 of 1 to 30 µM.

`CCOC(=O)CSc1nnc(Br)n1-c1ccc(C2CC2)c2ccccc12` displayed an EC50 of 0.001 to 1 µM.

As for `O=C(O)CCCSc1nnc(Br)n1-c1ccc(C2CC2)c2ccccc12`, the EC50 lay in the range of 0.001 to 1 µM.

Regarding `COc1ccc2c(C3CC3)ccc(-n3c(Br)nnc3SCC(=O)O)c2c1`, the EC50 lay within 1 to 30 µM.

With `O=C(O)CSc1nnc(Br)n1-c1cccc2c(OCC3CC3)cccc12`, the EC50 is over 30 µM.

In the case of `CC(C)(C)c1ccc(-n2c(Br)nnc2SCC(=O)O)c(Cl)c1`, the 50% effective concentration (EC50) was over 30 µM.

`COc1ccc2c(Br)ccc(-n3c(Br)nnc3SCC(=O)O)c2c1`: the EC50 lay within 1 to 30 µM.

Consider `CCc1ccc(-n2c(Br)nnc2SCC(=O)O)c2cc(OC)ccc12`, for which the EC50 lay in the range of 1 to 30 µM.

For the compound `COc1ccc(Cl)c(-n2c(Br)nnc2SCC(=O)O)c1`, the concentration for a half-maximal effect (EC50) is over 30 µM.

Compound `O=C(O)CSc1nnc(Br)n1-c1cc(C(F)(F)F)ccc1Cl` came in with an EC50 of over 30 µM.

Compound `CCOC(=O)C(C)Sc1nnc(Br)n1-c1ccc(C2CC2)c2ccccc12` (centres unmarked) registered an EC50 of 1 to 30 µM.

`CC(Sc1nnc(Br)n1-c1ccc(C2CC2)c2ccccc12)C(=O)O` (centres unmarked) showed an EC50 of 0.001 to 1 µM.

Regarding `CCCSc1nnc(Br)n1-c1ccc(C2CC2)c2ccccc12`, the EC50 was 1 to 30 µM.

For the compound `CC(C)(C)OC(=O)CSc1nnc(Br)n1-c1ccc(C2CC2)c2ccccc12`, the EC50 was over 30 µM.

The compound `CCOC(=O)C(C)(C)Sc1nnc(Br)n1-c1ccc(CC)c2ccccc12` yielded an EC50 of 0.001 to 1 µM.

`O=C(O)CSc1nnc(-c2ccccc2)n1-c1ccc(C2CC2)c2ccccc12` registered an EC50 of 1 to 30 µM.

As for `CCOC(=O)CSc1nnc(-c2ccccc2)n1-c1ccc(C2CC2)c2ccccc12`, the half-maximal effective concentration (EC50) fell in the range of 1 to 30 µM.
